Assays:
[1] = tested on: hypercholesterolemic C57B⅙ mice; experiment: Serum total cholesterol in hypercholesterolemic C57B⅙ mice on Paigen's cocoa butter diet; format: in vivo; details: apo e+/+ C57B1/6 mice, cocoa butter diet two weeks, then drug 1 week at 1.6 mg/kg/day i.p.
Experimental: Three- to four-week old C57B⅙ male mice (Taconic, Germantown, N.Y., USA) were kept in micro-isolator cages on a 12-hour day/night cycle and fed the Paigen's cocoa butter diet (15.8% fat, 1.25% cholesterol, and 0.5% sodium cholate) (Harlan Teklad, Madison, Wis., USA) for two weeks prior to initiation of lipid lowering therapy. Paigen's diet is described in Nishina et.al., 1993, J. Lipid Res. 34: 1413-1422.
(§1) Animals were treated with test compounds by intraperitoneal injection daily for 7 days. A range of doses was administered. Control animals received vehicle alone. The effect of quinazoline derivatives on total cholesterol, LDL, HDL, liver enzymes, and glucose was analyzed. The mice tissues were also examined histologically.
(§2) Serum total cholesterol was measured enzymatically using the cholesterol kit from Sigma Chemical Co. (St. Louis, Mo., USA). For liver tissue lipid measurements, lipids were extracted from homogenized hepatic tissues using the method of Bligh and Dyer (Bligh, et al., Can. J. Biochem. Phys. 1959, 37:911-917). One gram of liver tissue was homogenized in 1 ml of distilled water and extracted with 4 ml of chloroform/methanol (1:1, v/v). The chloroform phase containing the lipids was evaporated under a stream of nitrogen, the lipids dissolved in 100 μL of isopropanol, and subjected to cholesterol determination as described above. Triglyceride (TG) contents were determined using the TG kit from Sigma Chemical Co.
A high cholesterol and high fat diet was used to induce hypercholesterolemia in C57B⅙mice, using the methods described by Paigen, et al. (Nishina, et al., 1993, J. Lipid Res. 34:1413-1422) and as described for Example 1.

[2] = tested on: apo e−/− mice; experiment: Serum total cholesterol in apolipoprotein E deficient mice; format: in vivo; details: apo e−/− (C57B1/6) mice, Western diet two weeks, then drug 1 week at 40 mg/kg/day
Experimental: Three- to four-week old apolipoprotein E deficient (apo E^−/−) mice were the progeny of breeding pairs of apo E knockout (apo EKO) mice obtained from Jackson Labs. (Bar Harbor, Me., USA). Mice were fed either regular rodent chow (5% fat and 0% cholesterol) (Teklad-LM 485, Harlan Teklad, Madison, Wis., USA), the Paigen's cocoa butter diet, or the Western diet (21.22% fat and 0.2% cholesterol) (Harlan Teklad, Madison, Wis., USA) for two weeks prior to treatment.
as §1, §2
On regular rodent chow, the serum total cholesterol level of apo e^−/− mice was 836±57 mg/dL (n=47). After one week therapy with 8 mg/kg/day WHI-P164 (n=12), the mean serum total cholesterol level was reduced to 551±29 mg/dL (p=0.02).
When challenged with a cholesterol-rich diet, these animals developed frank hypercholesterolemia due to delayed clearance of intestinal chylomicrons which shuttle the dietary cholesterol from the intestine to the liver. In the present study, all of the 46 ApoE-deficient mice that were fed Western diet (14) became severely hypercholesterolemic with a mean serum total cholesterol level of 1491±59 mg/dL. One week WHI-P164 therapy reduced the mean serum total cholesterol level of hypercholesterolemic apo e^−/− mice to 1194±84 mg/dL (p=O.006) at a dose level of 8 mg/kg/day (n=19) and to 876±57 mg/dL (p<0.0001) at a dose level of 40 mg/kg/day (n=17) (Table 3).

SMILES | Serum total cholesterol [1] | Serum total cholesterol [2]
COc1cc2ncnc(Nc3cc(Br)c(O)c(Br)c3)c2cc1OC [WHI-P97, 4-(3′,5′-Dibromo-4′-hydroxylphenyl)-amino-6,7-dimethoxyquinazoline] | 413 ± 18 mg/dL | 1129 ± 46 mg/dL
COc1cc2ncnc(Nc3ccc(C)c(Br)c3)c2cc1OC [WHI-P111, 4-(3′-Bromo-4′-methylphenyl)-amino-6,7-dimethoxyquinazoline] | 406 ± 11 mg/dL | 1425 ± 92 mg/dL
COc1cc2ncnc(Nc3ccc(O)cc3)c2cc1OC [WHI-P131, 4-(4′-Hydroxylphenyl)-amino-6,7-dimethoxyquinazoline] | 433 ± 20 mg/dL | 1532 ± 77 mg/dL
COc1cc2ncnc(Nc3ccccc3O)c2cc1OC [WHI-P132, 4-(2′-Hydroxylphenyl)-amino-6,7-dimethoxyquinazoline] | – | 1774 ± 61 mg/dL
COc1cc2ncnc(Nc3ccc(O)c(Br)c3)c2cc1OC [WHI-P154, 4-(3′-Bromo-4′-hydroxylphenyl)-amino-6,7-dimethoxyquinazoline] | – | 1492 ± 110 mg/dL
COc1cc2ncnc(Nc3ccc(O)c(Cl)c3)c2cc1OC [WHI-P197, 4-(3′-Chloro-4′-hydroxylphenyl)-amino-6,7-dimethoxyquinazoline] | 372 ± 20 mg/dL | 1621 ± 146 mg/dL

Source: US6410545B1, “Lipid lowering quinazoline dietary supplement composition” (Parker Hughes Institute, priority 1998, dated 2002)
